Test system: 5×FAD mouse
Experiment: Morris water maze (MWM) task in 5×FAD mice
Type: in vivo
Method: A Morris water maze (MWM) task was conducted to examine an effect on improving cognitive function depending on the administration of the complex composition of the present invention. […] The above markers remained unchanged throughout the test period. The escape platform was placed 1 cm above the water surface or 0.5 to 1.5 cm below the water surface according to the purpose of the experiment. When placed under the water surface, the water was made opaque with white water-based paint so that the escape platform was not visible to the eye. The Morris water maze was divided into four quadrants, i.e., northeast (NE), northwest (NW), southeast (SE) and southwest (SW), wherein the escape platform was placed in the center of the southwest quadrant, and the mouse started randomly from one of the others.
The escape platform was made visible on Learning DAY 0. Each mouse was trained to recognize that it was possible to escape when they swam toward the escape platform and landed thereon. On DAY 1-4, the escape platform was hidden by being placed under the water, and then the mice learned the position of the escape platform. […] The mice were then immediately transferred to the breeding cage. On DAY 5, the probe test was performed without the escape platform. The probe test was performed by placing the mouse in the farthest part of the quadrant where the escape platform was placed during the training day, and 60 seconds was set as the time limit. The indexes of cognitive function include the escape latency which is the time required for the mouse to find the escape platform and the time spent in the quadrant where the escape platform was placed. It was judged that the shorter the time it takes to escape (FIG. 2A) and the longer the mouse stays in the quadrant where the escape platform was placed (FIG. 2B), the better the memory and learning ability of the mouse.
Then, each group was subjected to oral administration for 4 weeks to perform the experiment.

## COc1cc2c(cc1OC)C(=O)C(CC1CCN(Cc3ccccc3)CC1)C2 (stereo not drawn) [Donepezil, donepezil]
2 mg/kg of donepezil alone, reduction stated in text
  escape latency reduced by, based on the mutant mouse vehicle group: 14.2%
Mutated mouse, Donepezil 2 mg/kg oral, 4 weeks, DAY 4
  Escape latency (Increase or decrease compared to mutated mouse vehicle group): −14.2%
Mutated mouse, donepezil 2 mg/kg oral, 4 weeks, probe test DAY 5
  time spent in the target quadrant (Increase or decrease compared to mutated mouse vehicle group): 73.20%
